Data: US8105798B2, “Cytoplasmic activity of retinoid X receptor and its regulation by ligands and dimerization” (The Burnham Institute, priority 2003, dated 2012)
Entries after “also recorded” stand apart in the source; their conditions may differ.

Experiments:
TR3/RXRα heterodimer = target: T1, TR3/RXRα heterodimer (Homo sapiens, UniProt P19793); experiment: gel shift assay (EMSA) of TR3/RXRα heterodimer binding to βRARE; format: biochemical
T1 construct: made in house; host or cells: in vitro translation
Description: In vitro translated RXRα and TR3 were incubated with 15d-PGJ2 (10^-5 M) for 15 min in the absence or presence of anti-TR3 or anti-RXRα antibody. Following a further incubation with ^32P-radiolabelled βRARE, the reactions were analyzed by EMSA.
To study whether 15d-PGJ2 acted on the TR3/RXRα heterodimer to inhibit the heterodimer activity, Inventor investigated whether 15d-PGJ2 affected binding of the TR3/RXRα heterodimer to the beta.RARE by gel shift assay.
RXRα and TR3 proteins are incubated in the absence or presence of a test compound. Following incubation, the mixture is incubated with ^23P-labeled βretinoic acid response element (βRARE), and the binding of the RXRα/TR3 heterodimer is analyzed by the gel-shift assay. […] The enhancement of the heterodimer binding by a compound will indicate that the compound retains the RXRα/TR3 heterodimer in the nucleus and likely induces transcriptional activity of the heterodimer through its induction of RXRα/TR3 heterodimerization at their LBD dimerization interfaces.

RXRα/IKK interaction = target: T2, RXRα/IKK interaction (Homo sapiens, UniProt P19793); experiment: co-immunoprecipitation assay of RXRα with IKK; format: cell-based; conditions: HEK293T cells, HA-IKKγ and Flag-RXRα; BI419 10^-6 M, 15d-PGJ2 5 μM, sulindac sulfide 75 μM, 6 hr
T2 construct: expressed in transfected cells; host or cells: HEK293T, pcDNA3 expression vectors
Text: IKK is composed of three subunits: IKKα and IKKβ, the catalytic subunits, and IKKγ, a regulatory subunit. IKK activation is required for NF-kB activation through its phosphorylation and degradation of IkB in response to proinflammatory stimuli. In addition, IKK also regulates cellular processes in a NF-kB-independent manner. We examined whether sulindac sulfide-induced cytoplasmic RXRα could interact with IKK. The indicated expression vector (pcDNA3 from Invitrogen, Corp) was transfected into HEK293T cells alone or together. After transfection, cells were treated with sulindac sulfide (75.micro.M) for 6 hr, and the interaction of RXRα and IKKβ was analyzed by co-immunoprecipitation assay. […] (FIG. 17a). The interaction was also illustrated by their cytoplasmic co-localization in cells treated with sulindac sulfide. (FIG. 17b). […] In this example, H460 cells were treated with or without sulindac sulfide (75.micro.M) for 6 hr, and cells were stained for RXRα and IKKβ (FIG. 17c). […] HA-IKKγ and Flag-RXRα expression vectors were transfected into HEK293T cells alone or together. After transfection, cells were treated with a new retinoid (BI419 (10^-6 M), 15d-PGJ2 (5.micro.M), or sulindac sulfide (75.micro.M) for 6 hr. The interaction of RXRα and IKKγ was studied by co-immunoprecipitation assay.

RXRα = target: T3, RXRα (Homo sapiens, UniProt P19793); experiment: subcellular localization of RXRα by immunostaining / confocal microscopy; format: cell-based; conditions: for GFP-RXRα association with mitochondria (overlay with Mito-RFP) / GFP-RXRα localization: COS-7 cells, 10^-4 M, 4 hours; for nuclear export of GFP fusion with amino acids 348-398 of RXRα: HEK293T cells
T3 sequence (P19793 1-462): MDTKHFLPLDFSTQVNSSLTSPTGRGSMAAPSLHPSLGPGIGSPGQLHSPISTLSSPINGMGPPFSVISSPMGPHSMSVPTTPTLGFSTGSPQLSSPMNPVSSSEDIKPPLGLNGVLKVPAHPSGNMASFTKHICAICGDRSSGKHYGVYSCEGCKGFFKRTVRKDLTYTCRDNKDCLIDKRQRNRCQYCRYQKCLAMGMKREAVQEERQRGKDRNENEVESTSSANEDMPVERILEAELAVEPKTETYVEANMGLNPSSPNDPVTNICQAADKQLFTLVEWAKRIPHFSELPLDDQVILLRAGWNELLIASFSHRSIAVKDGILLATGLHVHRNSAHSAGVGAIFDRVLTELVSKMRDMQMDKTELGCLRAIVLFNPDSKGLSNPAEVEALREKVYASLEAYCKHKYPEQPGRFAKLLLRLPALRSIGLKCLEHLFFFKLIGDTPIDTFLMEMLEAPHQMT
Description: Expression vector for Flag-RXRα was transfected into the indicated cell line. Cells were then treated with 15d-PGJ2 (5.micro.M) for 3 hr, then immunostained with anti-Flag antibody to detect RXRα Flag-RXRα was visualized by confocal microscopy.
(§1) Expression vectors for Flag-RXRα and GFP-TR3 were transfected into PC12 cells alone or together. Cells were then treated with 15d-PGJ2 (5.micro.M) for 3 hr, then immunostained with anti-Flag antibody to detect RXRα Flag-RXRα and GFP-TR3 were visualized by confocal microscopy, and their images merged.
Cos7 cells were transfected with GFP-RXRα and Mito-REP, and treated with or without 10^-4 M indomethacin or diclofenac for 4 hours. The distribution of GFP-RXRα and Mito-REP was visualized by confocal microscopy.
For example, cells such as LNCaP prostate cancer cells are induced to apoptosis using agents such as the phorbol ester, TPA (12-0-tetradecanolphorbol 13-acetate, Cell Signaling Technology Cat. No.: 9905).
For example, heat shock protein 60 (Hsp60) is a mitochondrial specific protein. […] The treated cells are then incubated with a conjugated secondary antibody and visualized using confocal microscopy. In this example, Cy-3 or FITC conjugated secondary antibodies were used for visualizing the sub-cellular localization of RXRα or Hsp60, respectively.
A GFP-RXRα expression vector was transfected into COS-7 cells and GFP-RXRα was expressed.
A fusion protein created by combining GFP and amino acids 348-398 of RXRα, is transfected into HEK293T cells.
To determine the role of 15d-PGJ2 binding on the new RXR pathway, a confocal microscopy analysis was performed to determine subcellular localization of RXRα in the presence or absence of 15d-PGJ2.
(§2) Because RXR heterodimerizes with TR3, Inventor examined the effect of 15d-PGJ2 on TR3 subcellular localization in PC12 phaeochromocytoma cells.
To determine the mechanism of RXRα mediated apoptosis in the presence of sulindac sulfide, Inventors examined the effect of sulindac sulfide on subcellular localization of RXRα

[1] = target: T4, RXRα ligand-binding domain (Homo sapiens, UniProt P19793); experiment: competition binding assay with [3H]9-cis-RA and RXRα ligand-binding domain
T4 construct: made in house; host or cells: E. coli BL21 (pET vector, Novagen)
T4 sequence (P19793 224-462): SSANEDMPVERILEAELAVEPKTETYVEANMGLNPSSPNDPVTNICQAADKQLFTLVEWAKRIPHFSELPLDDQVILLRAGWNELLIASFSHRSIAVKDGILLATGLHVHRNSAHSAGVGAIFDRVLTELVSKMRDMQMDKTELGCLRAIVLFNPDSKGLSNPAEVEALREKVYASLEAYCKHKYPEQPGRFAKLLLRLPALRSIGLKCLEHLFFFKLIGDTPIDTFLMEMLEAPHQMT
Description: FIG. 8 is a dose response analysis illustrating that 15d-PGJ2 binds RXRα with high affinity conducted with 15d-PGJ2 in the competition binding assay. […] After separation of bound from free radioactivity by elution through Sephadex G-25 desalting columns. Bound radioactivity eluted was quantitated by liquid scientillation counting.
Therefore, Inventor investigated the possibility that 15d-PGJ2 bound directly to RXRα […] A dose response analysis (FIG. 8) was conducted with 15d-PGJ2 in the competition binding assay.
LBD expressed in E. coli. […] The reactions were then eluted through a Sephadex G-25 column to separate the bound label from free label and the RXRα LBD-bound label was quantitated by liquid scintillation counting.

RARβ expression = experiment: RARβ protein expression by Western analysis in cancer cells; format: cell-based
Description: The indicated cancer cells were treated for 24 h with or without trans-RA (10^-6 M), or 15d-PGJ2 (5.micro.M) or their combination. RARβ protein expression was determined by Western analysis.
The effect of sulindac sulfide on RXR transactivation was investigated for its effect of RARβ induction by all-trans-retinoic acid (tRA), which activates the RA response element (βRARE) in the RARβ promoter through an RAR/RXR heterodimer. […] The βRARE could be also activated by an RXR/PPAR heterodimer. […] Cells were treated for 24 hr with or without with trans-RA (10^-6 M), or SR11237 (10^-6 M), ciglitazone (10.micro.M), sulindac sulfide (100.micro.M) or the indicated combinations. RARβ protein expression was determined by Western analysis.

TR3 = experiment: subcellular localization of TR3 and RXRα/TR3 heterodimer by confocal microscopy; format: cell-based
Description: as §1, with “FIG. 10 is a series of confocal microscope images of immunostained PC12 cells illustrating that binding of 15d-PGJ2 to RXRα induces translocation of RXRα homodimer/monomer or TR3/RXRα heterodimer from the nucleus to the cytoplasm. Expression” for “Expression”
In the absence of TPA, both TR3 and RXRα reside mainly in the nucleus. […] (FIG. 2).
as §2
Either TR3 alone, RXRα alone or TR3 and RXRα was transfected into HEK293T cells. Cells were then treated with sulindac sulfide (75.micro.M) for 6 hr. RXR.alpha and TR3 localization was determined by immunostaining, and cells were also stained by DAPI. […] Thus, the effect of sulindac sulfide on the cytoplasmic localization of TR3 depends on RXRα expression, probably due to their heterodimerization. Thus, sulindac sulfide induces nuclear export of RXRα and RXRα/TR3 heterodimer. (FIG. 14b).
The effect of sulindac sulfide on mitochondrial targeting of RXRα and TR3 was determined by treating H460 lung cancer cells with 75 micro.M sulindac sulfide for 6 hours and visualization of the cellular localization of these proteins by immunostaining. A two stage detection system was used having either anti-RXR or anti TR3 as a first stage (Santa Cruz Biotechnology and Abgent, respectively). In the absence of treatment, both RXRα and TR3 were found mainly in the nucleus.

[2] = tested on: CV-1, MGC80-3, HEK293T and HCT116 cells; experiment: apoptosis determined by DAPI staining; format: cell-based; conditions: for effect on sulindac sulfide-induced apoptosis: RXRα ligands given with sulindac sulfide
Description: To determine the involvement of RXRα in sulindac sulfide-induced apoptosis of cancer cells, its effect on apoptosis of CV-1 cells (available from American Type Cell Culture, Manassas, Va., as accession number CCL-70) in the absence or presence of RXRα transfection was evaluated. FIG. 13a. RXR was cloned into a pGFP.C2 vector (GenBank Accession #: U19281) according to the procedure of Li et al., Science 289, 1159-1164 (2000). CV-1 cells were transfected with or without RXRα prior to treatment with sulindac sulfide (75.micro.M) for 24 hr. […] Louis, Mo., as catalogue number D9542), and the presence of nuclear fragmentation and/or chromatin condensation is an indicator of apoptosis. […] The requirement of RXRαwas also examined using RXRα siRNA SEQ ID No.: 12 approach. MGC80-3 cells, HEK293T (ATCC, accession number CCL-1573) and HCT116 (ATCC, accession number CCL-247) cell lines were transfected with RXRα siRNA or control siRNA using oligofectamine (from Invitrogen, Corp). Cell samples from each cell line were lysed and the cell extracts were prepared by immunoblotting to determine RXRα expression. Cells transfected with RXR.alpha siRNA or control siRNA were treated with sulindac sulfide (75.micro.M) for 24 hr, and apoptosis was determined by DAPI staining.

T1 sequence (P22736 whole entry partner, one chain of several): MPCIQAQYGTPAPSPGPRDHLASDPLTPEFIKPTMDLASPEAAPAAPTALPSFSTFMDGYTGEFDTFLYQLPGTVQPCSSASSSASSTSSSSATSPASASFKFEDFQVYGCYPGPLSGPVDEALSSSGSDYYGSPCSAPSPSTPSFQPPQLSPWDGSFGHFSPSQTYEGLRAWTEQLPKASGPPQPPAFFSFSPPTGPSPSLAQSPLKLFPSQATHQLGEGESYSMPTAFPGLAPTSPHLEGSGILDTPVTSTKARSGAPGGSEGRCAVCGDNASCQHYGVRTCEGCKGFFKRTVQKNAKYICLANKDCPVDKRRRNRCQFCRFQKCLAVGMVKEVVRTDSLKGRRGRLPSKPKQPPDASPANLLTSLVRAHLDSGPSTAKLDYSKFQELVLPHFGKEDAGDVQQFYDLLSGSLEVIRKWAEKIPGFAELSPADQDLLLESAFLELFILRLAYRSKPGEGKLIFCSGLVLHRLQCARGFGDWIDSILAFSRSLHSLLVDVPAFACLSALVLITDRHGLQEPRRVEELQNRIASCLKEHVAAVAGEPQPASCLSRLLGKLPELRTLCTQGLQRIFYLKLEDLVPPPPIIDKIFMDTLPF
T2 sequence (Q9Y6K9 whole entry partner, one chain of several): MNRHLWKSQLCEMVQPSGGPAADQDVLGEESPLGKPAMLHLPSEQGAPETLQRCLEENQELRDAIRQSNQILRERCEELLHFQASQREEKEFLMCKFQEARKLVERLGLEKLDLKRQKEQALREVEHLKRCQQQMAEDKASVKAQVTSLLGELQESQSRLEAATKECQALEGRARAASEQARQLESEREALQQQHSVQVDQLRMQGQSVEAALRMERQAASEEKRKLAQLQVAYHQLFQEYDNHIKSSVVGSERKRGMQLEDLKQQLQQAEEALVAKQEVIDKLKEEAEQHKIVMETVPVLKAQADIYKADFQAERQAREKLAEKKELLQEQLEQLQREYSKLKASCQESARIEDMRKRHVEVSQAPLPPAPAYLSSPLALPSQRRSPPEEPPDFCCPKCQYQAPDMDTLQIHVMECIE
T2 sequence (O14920 whole entry partner, one chain of several): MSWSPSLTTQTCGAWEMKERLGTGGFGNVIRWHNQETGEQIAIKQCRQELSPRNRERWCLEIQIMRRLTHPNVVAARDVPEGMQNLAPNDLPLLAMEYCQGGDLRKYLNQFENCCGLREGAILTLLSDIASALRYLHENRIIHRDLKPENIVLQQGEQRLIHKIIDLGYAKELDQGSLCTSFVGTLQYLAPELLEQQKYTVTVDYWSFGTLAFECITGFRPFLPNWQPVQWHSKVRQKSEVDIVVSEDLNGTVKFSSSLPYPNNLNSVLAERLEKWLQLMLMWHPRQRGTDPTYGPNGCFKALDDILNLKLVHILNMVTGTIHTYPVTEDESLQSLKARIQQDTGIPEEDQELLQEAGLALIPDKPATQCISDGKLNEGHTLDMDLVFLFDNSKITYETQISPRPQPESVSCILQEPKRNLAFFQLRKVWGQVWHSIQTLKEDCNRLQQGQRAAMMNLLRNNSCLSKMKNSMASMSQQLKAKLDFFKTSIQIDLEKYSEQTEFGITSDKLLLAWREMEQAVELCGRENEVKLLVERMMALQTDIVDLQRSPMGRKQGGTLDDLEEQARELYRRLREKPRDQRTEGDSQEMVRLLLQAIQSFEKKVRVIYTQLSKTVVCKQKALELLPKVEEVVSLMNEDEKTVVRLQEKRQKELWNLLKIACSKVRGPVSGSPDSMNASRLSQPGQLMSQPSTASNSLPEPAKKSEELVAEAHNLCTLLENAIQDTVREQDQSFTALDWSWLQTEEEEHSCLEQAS

CCCCC/C=C/C=C1/C(=O)C=C[C@@H]1C/C=C\CCCC(=O)O [15d-PGJ2, 15-Deoxy-.delta^12,14-prostaglandin J2]
binding of TR3/RXRα heterodimer to βRARE (TR3/RXRα heterodimer; 10^-5 M, 15 min, in vitro translated RXRα and TR3, EMSA): completely abolished | binding of RXRα/TR3 heterodimer to DNA (βRARE), as control in gel-shift screening (TR3/RXRα heterodimer; stated for positive/negative control, no concentration): abolishes the heterodimer binding | interaction of RXRα with IKKγ (RXRα/IKK interaction): further promoted | transfected Flag-RXRα localization (RXRα; H460 lung cancer or SY5Y neuroblastoma cells, 5 μM, 3 hr): significant amount of RXRα was found in the cytoplasm | Flag-RXRα localization (RXRα; PC12 cells, 5 μM, 3 hr): migrated from the nucleus to the cytoplasm | RXRα nuclear export (RXRα; no conditions given): induce RXRα nuclear export | Ki ([1]; read-out: Ki, displacement of [3H]9-cis-RA binding to the RXR ligand-binding domain, 10 nM [3H]9-cis-RA, bacterially purified RXRα LBD): 1.8 µM | induction of RARβ expression by trans-RA (RARβ expression; Calu-6 lung and ZR75-1 breast cancer cells, 15d-PGJ2 5 μM, trans-RA 10^-6 M, 24 h): potently inhibited | RARβ expression in combination with RXR ligands (RARβ expression; used together with RXR ligands): failed to induce | GFP-TR3 localization, cotransfected with Flag-RXRα (TR3; PC12 cells, 5 μM, 3 hr): found in the cytoplasm | GFP-TR3 migration to the cytoplasm, TR3 transfected alone (TR3; PC12 cells, 5 μM, 3 hr): did not

O=C(O)Cc1ccccc1Nc1c(Cl)cccc1Cl [diclofenac]
GFP-RXRα association with mitochondria (overlay with Mito-RFP) (RXRα): associated with mitochondria | GFP-RXRα localization (RXRα): capable of inducing the migration; also recorded: found in the cytoplasm

CC1(C)CCC(C)(C)c2cc(C3(c4ccc(C(=O)O)cc4)OCCO3)ccc21 [SR11237]
effect on sulindac sulfide-induced apoptosis [2]: inhibitory effect

CC1=C(CC(=O)O)c2cc(F)ccc2/C1=C\c1ccc([S+](C)[O-])cc1 (stereo not drawn) [sulindac]
apoptosis, cells without RXRα transfection ([2]; CV-1 cells, 75 μM, 24 hr, DAPI staining): little inducing effect | IC50 [1]: ~100 µM

CC1=C(/C=C/C(C)=C\C=C\C(C)=C\C(=O)O)C(C)(C)CCC1 [9-cis-RA]
effect on sulindac sulfide-induced apoptosis [2]: inhibitory effect

CCCCCCCCCCCCCC(=O)O[C@@H]1[C@@H](C)[C@@]2(O)[C@@H](C=C(CO)C[C@]3(O)C(=O)C(C)=C[C@@H]23)[C@H]2C(C)(C)[C@]12OC(C)=O [TPA, 12-0-tetradecanolphorbol 13-acetate]
nuclear export of GFP fusion with amino acids 348-398 of RXRα (RXRα): causes the fusion protein to export from the nucleus | RXRα association with mitochondria (overlay with Hsp60) (RXRα; LNCaP cells treated with TPA): associates with mitochondria | RXRα localization (RXRα; LNCaP prostate cancer cells, endogenous RXRα, TPA treatment): found in the cytoplasm | TR3 and RXRα localization (TR3; LNCaP cells treated with TPA): co-localize to the cytoplasm

COc1ccc2c(c1)c(CC(=O)O)c(C)n2C(=O)c1ccc(Cl)cc1 [indomethacin]
GFP-RXRα association with mitochondria (overlay with Mito-RFP) (RXRα): associated with mitochondria | GFP-RXRα localization (RXRα): capable of inducing the migration; also recorded: found in the cytoplasm

CCC(=C/[C@H](C)C/C=C/C(C)=C/[C@@H](C)C(=O)[C@@H](C)[C@H](O)[C@@H](C)C/C(C)=C/C(=O)O)/C=C/[C@@H]1OC(=O)C=C[C@@H]1C [leptomycin-B]
nuclear export of GFP fusion with amino acids 348-398 of RXRα (RXRα): inhibited
